Columns and labels:
Format in all cases: cell-based, murine
B16F10 cells = assay: Melanin content analysis in α–MSH plus IBMX stimulated B16F10 cells
Protocol: 2.10. Melanin Content Analysis Melanin content assays were performed to determine the effects of analog 3 on cellular melanin formation, as previously described with minor modification. […] Briefly, cultured B16F10 cells were seeded in 6-well culture plates at 1 × 10^4 cells/well and incubated for 12 h under culture conditions to allow them to adhere to well bottoms. […] Cells were then washed twice with PBS and detached from wells by incubation with Trypsin/EDTA. After centrifugation, detached cell pellets were dissolved in 1N–NaOH solution (100 µL), incubated for 1 h at 60 °C, and mixed to solubilize melanin released by cells. The ability of analog 3 to inhibit melanin production was determined by measuring well optical densities (ODs) at 405 nm using a microplate reader (VersaMax®, Molecular Devices, Sunnyvale, CA, USA). Melanin contents were calculated by dividing the ODs of samples by the control OD. Experiments were conducted independently 3 times. […] Thus, B16F10 cells were treated with analog 3 (0, 5, 10, or 20 µM) for 1 h and then stimulated with α–MSH (1 µM) plus IBMX (200 µM) for 72 h. Melanin contents were assessed by measuring optical densities at 405 nm.

tyrosinase = assay: Western blot of cytosolic tyrosinase in α–MSH/IBMX stimulated B16F10 cells; conditions: 5, 10, 20 µM
Protocol: 2.15. Extraction of Cytosolic and Nuclear Proteins from Cells
Western blotting was used to determine tyrosinase and MITF protein levels. Briefly, B16F10 cells were seeded in 60 mm culture dishes in the presence or absence of α–MSH (1 µM) plus IBMX (200 µM) with or without analog 3 (5, 10, and 20 µM for final concentrations) for 24 h, washed twice with ice-cold PBS and centrifuged for 10 min at 12,000× g. Cell pellets were suspended in 10 mM Tris (pH 8.0) containing 0.1% NP-40, 1 mM DTT, 1.5 mM MgCl2, 1 mM PMSF, and protease inhibitors (GenDEPOT, Barker, TX, USA), incubated on ice for 15 min, and centrifuged for 10 min at 12,000× g at 4 °C. Supernatants were used as cytosolic fractions. […] The protein concentrations were determined using a bicinchoninic acid (BCA)™ assay kit (Pierce, Rockford, IL, USA). […]
Lysed protein samples from cells were boiled for 10 min in sample-loading buffer (0.1% bromophenol blue, 25% glycerol, 60 mM Tris-HCl (pH 6.8), 2% SDS, and 0.5% β-mercaptoethanol) at a volume ratio of 1:4. […] Immunoreactive proteins were detected using the enhanced chemiluminescence (ECL) detection reagent in the SuperSignal® West Pico Chemiluminescent Substrate kit (Advansta, San Jose, CA, USA). Western blot bands were visualized using a Davinch-Chemi imager™ (Davinch-K, Seoul, Korea), and quantification was conducted by densitometric analysis using CS analyzer software ver. […]

TRP-1 = assay: RT-qPCR of TRP-1 mRNA in α–MSH/IBMX stimulated B16F10 cells
Protocol: 2.17. RNA Extraction and Quantitative Real Time-Polymerase Chain Reaction (RT-qPCR)
B16F10 cells were extracted using GeneAll RiboEx Total RNA extraction reagent (GeneAll Biotechnology, Seoul, Korea) and transferred to tubes, added with chloroform (0.1 mL), shaken vigorously for 30 sec, and centrifuged for 15 min at 12,000× g. Aqueous phases were transferred to fresh tubes, and equal volumes of isopropanol were added. Samples were then incubated at 4 °C for 10 min and centrifuged for 15 min at 12,000× g at 4 °C. Supernatants were discarded, and RNA pellets were washed once with 0.8 mL of 70% ethanol and by vortexing briefly and centrifuged for 5 min at 7500× g at 4 °C. Pellets were dried at 56 °C for 10–15 min and dissolved in 30 µL of diethyl pyrocarbonate (DEPC)-treated water. The levels of RNA were determined by a Nanodrop spectrophotometer (NANO-200, Allsheng, Hangzhou, China). Complementary DNA (cDNA) was synthesized from total RNA (2 µg) using SuPrime Script RT Premix (with random hexamer) cDNA Synthesis Kit (GeNet Bio, Daejeon, Korea). […]
To further investigate the anti-melanogenesis mechanism of analog 3, we examined its effect on the expressions of melanogenesis-associated genes and levels of melanogenesis-associated proteins in B16F10 cells. […] Nuclear levels of MITF protein were measured by Western blotting in α–MSH/IBMX-stimulated B16F10 cells. […]

O=C1/C(=C/c2ccc(O)cc2O)SC(=S)N1C1CCCCC1 [Analog 3, (Z)-3-Cyclohexyl-5-(2,4-dihydroxybenzylidene)-2-thioxothiazolidin-4-one]
effect on α–MSH/IBMX-induced melanin contents at 5 µM (B16F10 cells; 5 µM, compared with kojic acid 20 µM): greater effect than kojic acid at 20 µM | effect on α–MSH/IBMX-induced melanin contents at 20 µM (B16F10 cells; 20 µM, 72 h): to the non-treated control level | effect on α–MSH/IBMX-induced melanin content increases (B16F10 cells; 5, 10, 20 µM, 72 h): significantly and dose-dependently reduced | effect on α–MSH/IBMX-induced increase in tyrosinase expression (protein, cytosol) (tyrosinase): significantly and concentration-dependently reduced | effect on expression of TRP-1 (mRNA) (TRP-1; α–MSH/IBMX stimulated): significantly and concentration-dependently decreased | TRP-1 gene expression (TRP-1; α–MSH/IBMX stimulated (2.2-fold), 5 µM): 1.3 fold
